What was measured:
MV4-11 leukemia cells = assay: Inhibition of proliferation of MV4-11 leukemia cells (CellTiter-Glo, 72 h); format: cell-based; conditions: Homo sapiens, MV4-11, 72 h, read-out: IC50 value, MV4-11 cell proliferation
Method: Specific experimental procedures: 1) At Day 0: Inoculating trypsin-digested cells in 96-well plate and suspending the plate in cell culture medium; measure cell density using an automatic cell counter, diluting the cells with the culture medium to appropriate density, adding 100 μl of cell suspension in the 96-well plate, and incubating a cell-free medium as a control well in a cell incubator with […] at 37° C. overnight; 2) Day 1: Treating test compounds of the cells using a drug for a total of 8 concentrations, and diluting at a 3× concentration, wherein 10 μM is a starting test concentration of the test compounds. […] IC50 values are obtained by a four-parameter regression using software attached to the plate reader (the specific results are shown in Table 2).

CYP2C19 = CYP2C19 (Homo sapiens (Human), UniProt P33261); assay: biochemical; format: in vitro ADME
Chain of CYP2C19 (P33261 whole entry): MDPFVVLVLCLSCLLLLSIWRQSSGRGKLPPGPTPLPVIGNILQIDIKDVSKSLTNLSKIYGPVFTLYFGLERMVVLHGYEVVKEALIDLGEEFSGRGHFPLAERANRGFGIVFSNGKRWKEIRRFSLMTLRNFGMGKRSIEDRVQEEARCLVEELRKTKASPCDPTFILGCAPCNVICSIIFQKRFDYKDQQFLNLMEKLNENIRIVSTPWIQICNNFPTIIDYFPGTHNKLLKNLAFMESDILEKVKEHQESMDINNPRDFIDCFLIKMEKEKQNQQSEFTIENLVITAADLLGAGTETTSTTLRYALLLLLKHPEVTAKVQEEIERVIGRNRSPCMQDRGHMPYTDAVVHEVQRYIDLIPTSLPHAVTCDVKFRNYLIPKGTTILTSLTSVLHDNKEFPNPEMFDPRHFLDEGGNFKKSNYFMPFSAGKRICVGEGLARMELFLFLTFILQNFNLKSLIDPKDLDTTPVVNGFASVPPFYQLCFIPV
Method: (§1) Direct inhibition test (DI test): Incubating 100 μL of human liver microsomes (final concentration 0.2 mg/mL) containing NADPH (final concentration 1 mM), 10 μM of compound, a positive inhibitor cocktail (ketoconazole 10 μM, quinidine 10 μM, sulfaphenazole 100 μM, a-naphthoflavone 10 μM, and tranylcypromine 1,000 μM), a negative control (BPS containing 0.1% dimethyl sulfoxide) and a mixed probe substrate (midazolam 10 μM, testosterone 100 μM, dextromethorphan 10 μM, diclofenac 20 μM, phenacetin 100 μM, and mephenytoin 100 μM) for direct inhibition, and terminating the reaction after 20 min of the incubation. Calculating the relative enzyme activity by measuring the relative production of metabolites.

CYP2D6 = CYP2D6 (Homo sapiens (Human), UniProt P10635); assay: biochemical; format: in vitro ADME
Chain of CYP2D6 (P10635 whole entry): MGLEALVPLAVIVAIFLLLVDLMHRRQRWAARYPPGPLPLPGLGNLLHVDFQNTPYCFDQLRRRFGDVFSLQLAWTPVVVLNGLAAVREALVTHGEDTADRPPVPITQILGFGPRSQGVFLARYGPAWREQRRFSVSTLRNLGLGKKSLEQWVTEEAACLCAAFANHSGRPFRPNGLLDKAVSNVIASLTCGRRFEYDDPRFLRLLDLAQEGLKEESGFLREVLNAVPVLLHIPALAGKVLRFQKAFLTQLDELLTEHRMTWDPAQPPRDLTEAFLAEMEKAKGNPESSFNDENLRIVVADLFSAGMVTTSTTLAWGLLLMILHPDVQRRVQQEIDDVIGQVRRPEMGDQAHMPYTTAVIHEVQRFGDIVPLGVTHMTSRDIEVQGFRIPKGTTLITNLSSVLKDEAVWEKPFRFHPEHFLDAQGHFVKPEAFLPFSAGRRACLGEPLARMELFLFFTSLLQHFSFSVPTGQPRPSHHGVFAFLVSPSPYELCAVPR
Method: as §1

CYP3A4 = CYP3A4 (Homo sapiens (Human), UniProt P08684); assay: biochemical; format: in vitro ADME
Chain of CYP3A4 (P08684 whole entry): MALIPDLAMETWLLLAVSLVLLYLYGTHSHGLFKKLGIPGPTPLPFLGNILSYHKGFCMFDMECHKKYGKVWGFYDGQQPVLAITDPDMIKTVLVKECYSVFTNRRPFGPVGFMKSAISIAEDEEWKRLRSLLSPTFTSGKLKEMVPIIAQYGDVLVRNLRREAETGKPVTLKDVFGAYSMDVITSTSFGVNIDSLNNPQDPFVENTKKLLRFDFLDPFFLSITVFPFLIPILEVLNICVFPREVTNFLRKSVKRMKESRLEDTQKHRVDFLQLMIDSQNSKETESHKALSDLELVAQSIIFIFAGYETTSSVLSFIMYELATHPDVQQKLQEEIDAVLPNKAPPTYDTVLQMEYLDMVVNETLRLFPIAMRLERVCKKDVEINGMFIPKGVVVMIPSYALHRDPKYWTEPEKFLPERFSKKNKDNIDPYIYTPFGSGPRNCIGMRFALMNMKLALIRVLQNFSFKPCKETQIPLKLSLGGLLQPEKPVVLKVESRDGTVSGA
Method: as §1

CYP2C9 = CYP2C9 (Homo sapiens (Human), UniProt P11712); assay: biochemical; format: in vitro ADME
Chain of CYP2C9 (P11712 whole entry): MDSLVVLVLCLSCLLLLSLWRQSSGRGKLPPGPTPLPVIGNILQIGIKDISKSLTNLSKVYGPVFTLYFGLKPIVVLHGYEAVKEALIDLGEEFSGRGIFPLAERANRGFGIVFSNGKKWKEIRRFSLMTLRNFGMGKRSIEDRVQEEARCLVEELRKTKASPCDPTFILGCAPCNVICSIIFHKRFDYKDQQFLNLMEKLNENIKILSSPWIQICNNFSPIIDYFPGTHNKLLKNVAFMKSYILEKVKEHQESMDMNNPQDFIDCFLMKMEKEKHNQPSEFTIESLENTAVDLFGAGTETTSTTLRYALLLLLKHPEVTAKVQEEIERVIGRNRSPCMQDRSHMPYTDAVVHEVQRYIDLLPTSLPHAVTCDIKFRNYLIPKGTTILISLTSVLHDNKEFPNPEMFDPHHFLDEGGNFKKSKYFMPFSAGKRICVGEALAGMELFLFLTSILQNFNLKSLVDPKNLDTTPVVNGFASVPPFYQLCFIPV
Method: as §1

SHP1 = SHP1 (Homo sapiens (Human), UniProt P29350); assay: Inhibitory activity against different phosphatases; format: biochemical; conditions: read-out: IC50 against phosphatase SHP1
Chain of SHP1 (P29350 whole entry): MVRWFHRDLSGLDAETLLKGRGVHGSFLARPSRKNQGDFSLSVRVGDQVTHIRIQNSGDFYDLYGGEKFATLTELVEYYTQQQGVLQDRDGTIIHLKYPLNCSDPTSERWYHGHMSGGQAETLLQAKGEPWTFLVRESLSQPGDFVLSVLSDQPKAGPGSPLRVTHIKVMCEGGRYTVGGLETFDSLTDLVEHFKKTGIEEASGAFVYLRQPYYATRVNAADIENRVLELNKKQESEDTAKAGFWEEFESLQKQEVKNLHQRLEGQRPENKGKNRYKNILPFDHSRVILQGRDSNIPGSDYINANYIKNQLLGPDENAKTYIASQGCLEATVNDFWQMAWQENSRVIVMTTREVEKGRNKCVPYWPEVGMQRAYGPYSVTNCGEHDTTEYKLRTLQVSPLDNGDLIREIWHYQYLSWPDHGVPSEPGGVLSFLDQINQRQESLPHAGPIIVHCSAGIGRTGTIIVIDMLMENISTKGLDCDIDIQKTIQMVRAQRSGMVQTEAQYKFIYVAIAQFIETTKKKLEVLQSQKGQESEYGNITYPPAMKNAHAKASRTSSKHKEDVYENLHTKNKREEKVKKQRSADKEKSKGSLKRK
Method: (§2) Allowing compound solutions (10 μM, 3× dilution at eight gradients) of examples reacted with phosphatases such as SHP1, LMW-PTP, LYP, MKP3, PTP1B, PTPN2, PTPN6, VHR, CDC25A, PTPRR, etc. according to a similar method shown in Test Example 1 to test the inhibitory activity of the compounds on the phosphatases described above.

PTP1B = PTP1B (Homo sapiens (Human), UniProt P18031); assay: Inhibitory activity against different phosphatases; format: biochemical; conditions: read-out: IC50 against phosphatase PTP1B
Chain of PTP1B (P18031 whole entry, species assumed): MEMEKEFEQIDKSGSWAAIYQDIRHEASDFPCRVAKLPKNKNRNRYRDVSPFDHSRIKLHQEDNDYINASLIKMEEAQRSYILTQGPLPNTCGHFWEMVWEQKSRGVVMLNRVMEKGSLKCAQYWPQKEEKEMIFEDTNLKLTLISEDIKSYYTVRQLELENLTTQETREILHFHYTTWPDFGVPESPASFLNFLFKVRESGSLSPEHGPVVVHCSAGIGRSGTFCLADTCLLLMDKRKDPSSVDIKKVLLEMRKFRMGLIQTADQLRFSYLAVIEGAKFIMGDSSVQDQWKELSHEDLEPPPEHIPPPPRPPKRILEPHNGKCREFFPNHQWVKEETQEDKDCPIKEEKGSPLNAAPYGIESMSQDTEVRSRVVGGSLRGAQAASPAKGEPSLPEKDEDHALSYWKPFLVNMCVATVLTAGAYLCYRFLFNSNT
Method: as §2

CYP1A2 = CYP1A2 (Homo sapiens (Human), UniProt P05177); assay: CYP direct inhibition test (DI test) in human liver microsomes; format: in vitro ADME
Chain of CYP1A2 (P05177 whole entry): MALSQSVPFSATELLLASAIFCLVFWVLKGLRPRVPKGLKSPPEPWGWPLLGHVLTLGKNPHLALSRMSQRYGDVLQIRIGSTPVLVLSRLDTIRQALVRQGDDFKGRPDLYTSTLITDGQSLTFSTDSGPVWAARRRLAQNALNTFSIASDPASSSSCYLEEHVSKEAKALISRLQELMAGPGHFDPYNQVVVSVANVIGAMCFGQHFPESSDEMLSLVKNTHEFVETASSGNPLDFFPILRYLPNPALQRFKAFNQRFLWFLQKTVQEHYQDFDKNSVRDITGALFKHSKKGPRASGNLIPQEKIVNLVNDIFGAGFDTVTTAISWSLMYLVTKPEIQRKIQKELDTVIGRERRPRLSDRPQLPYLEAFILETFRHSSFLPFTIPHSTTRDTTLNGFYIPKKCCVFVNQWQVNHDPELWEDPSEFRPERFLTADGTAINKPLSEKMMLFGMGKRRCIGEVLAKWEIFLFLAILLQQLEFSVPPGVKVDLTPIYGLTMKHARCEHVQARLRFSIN
Method: as §1

[1] = tested on: MC38 colorectal cancer xenografts; assay: Growth inhibition of MC38 colorectal cancer xenografts in C57BL-6 mice; format: in vivo; conditions: 1 mg/kg, orally, once daily
Text: Experimental method: 1) Culturing MC38 cells in a culture medium containing 10% fetal bovine serum. […] 2) Subcutaneously inoculating […] tumor cells at the right back of a mouse, and resuspending the cells in PBS and matrigel (1:1); observing tumor growth regularly, and randomizing mice for administration based on tumor size and mouse body weight when tumors grow to a mean volume of ˜50 mm^3-60 mm^3. 3) Defining the day of tumor cell inoculation as Day 0. Prior to the start of dosing, weighing all animals and measuring the tumor volume with a vernier caliper. 3) Administering orally compound of examples (prepared with water for injection containing 1% Tween80 to a desired concentration for use) at a given dose, intraperitoneally injecting an anti-PD-L1 antibody twice a week, for two consecutive weeks, and giving an equal amount of solvent animals in a solvent control group. Measuring diameters of the xenograft twice a week throughout the experiment, and weighing the mice were at the same time.
The calculation formula of tumor volume (TV) is: TV=½×a×b^2, wherein a and b represent length and width, respectively. The relative tumor volume (RTV) is calculated based on the measured results using the formula: RTV=Vt/V0, wherein V0 is the tumor volume measured at the time of dosing in separate cages (i.e., Day 0) and Vt is the tumor volume at each measurement. […]

`Nc1nccc(Sc2c(N)nc(N3CCC4(CC3)Cc3ccccc3[C@H]4N)n3ccnc23)c1Cl` [Example 4, (S)-1′-(7-amino-8-((2-amino-3-chloropyridin-4-yl)thio)imidazo [1,2-c]pyrimidin-5-yl)-1,3-dihydrospiro [indene-2,4′-piperidine]-1-amine] showed an IC50 (MV4-11 leukemia cells) of 0.0047 µM, an IC50 (CYP2C19) greater than 25 µM and an IC50 (CYP2D6) greater than 25 µM. It also gave an IC50 (CYP3A4) greater than 25 µM, an IC50 (CYP2C9) greater than 25 µM and an IC50 (SHP1) greater than 0.5 µM. The IC50 (PTP1B) was greater than 0.5 µM and the IC50 (CYP1A2) was greater than 25 µM.

Work on `Cc1nc(N2CCC3(CC2)Cc2ccccc2[C@H]3N)n2ccnc2c1Sc1ccnc(N)c1Cl` [Example 1, (S)-1′-(8-((2-amino-3-chloropyridin-4-yl)thio)-7-methylimidazo [1,2-c]pyrimidin-5-yl)-1,3-dihydrospiro [indene-2,4′-piperidine]-1-amine] yielded an IC50 (MV4-11 leukemia cells) of 0.011 µM, an IC50 (CYP2C19) greater than 25 µM and an IC50 (CYP2D6) greater than 25 µM. It also gave an IC50 (CYP3A4) greater than 25 µM, an IC50 (CYP2C9) greater than 25 µM and an IC50 (SHP1) greater than 0.5 µM. The IC50 (PTP1B) was greater than 0.5 µM, the IC50 (CYP1A2) was greater than 25 µM and the T/C [1] was 60%.

— patent publication US12281118B2, “Nitrogen-containing fused heterocyclic SHP2 inhibitor compound, preparation method, and use” (SHANGHAI RINGENE BIOPHARMA CO., LTD., priority 2018, dated 2025)
